The source of these data is ChEMBL document CHEMBL5365482, “Rational Design of Sulfonyl-γ-AApeptides as Highly Potent HIV-1 Fusion Inhibitors with Broad-Spectrum Activity” (J Med Chem, 2023).

Series [1] deals with Human immunodeficiency virus 1. In words: Antiviral activity against HIV1 IIIB infected in human MT2 cells assessed as inhibition of viral growth incubated for 30 mins by ELISA assay. The class given is functional, organism-based. Particulars: Human immunodeficiency virus 1, IIIB, MT2, 0.5 h. (ELISA stands for enzyme-linked immunosorbent assay.)
The nature of series [2]: Cytotoxicity against human MT2 cells assessed as inhibition of cell growth measured after 3 days by CCK8 assay. The class given is toxicity, cell-based. The note with it: time 3 day.
Series [3] in a line: Selectivity index, ratio of CC50 for human MT2 cells to IC50 for HIV1 IIIB infected in human MT2 cells. The class given is toxicity, cell-based. Particulars: read-out: Ratio CC50/IC50.

For `CC[C@@H](C)[C@@H](CN(CC(=O)N[C@@H](CCC(=O)O)CN(CC(=O)N[C@@H](CC(C)C)CN(CC(N)=O)S(=O)(=O)CC(C)C)S(=O)(=O)c1ccc(C(=O)O)cc1)S(=O)(=O)CC(C)C)NC(=O)CN(C[C@H](CCCCN)NC(=O)CN(C[C@H](Cc1ccc(O)cc1)NC(=O)CN(C[C@H](CCC(=O)O)NC(=O)CN(C[C@@H](NC(=O)CN(C[C@H](CCCCN)NC(=O)CN(C[C@H](Cc1c[nH]c2ccccc12)NC(=O)CN(C[C@H](CCC(=O)O)NC(=O)CN(C[C@H](Cc1c[nH]c2ccccc12)NC(=O)CN(C[C@H](CCSC)NC(C)=O)S(=O)(=O)CC(C)C)S(=O)(=O)CC(C)C)S(=O)(=O)c1ccc(C(=O)O)cc1)S(=O)(=O)CC(C)C)S(=O)(=O)CCN)[C@H](C)CC)S(=O)(=O)CC(C)C)S(C)(=O)=O)S(=O)(=O)CC(C)C)S(=O)(=O)CCN`, the IC50 in series [1] was more than 40 µM. Moreover, the CC50 at 72 h in series [2] is more than 40 µM.

Consider `CC[C@@H](C)[C@@H](CN(CC(=O)N[C@@H](CCC(=O)O)CN(CC(=O)N[C@@H](CC(C)C)CN(CC(N)=O)S(=O)(=O)CC(C)C)S(C)(=O)=O)S(=O)(=O)CC(C)C)NC(=O)CN(C[C@H](CCCCN)NC(=O)CN(C[C@H](Cc1ccc(O)cc1)NC(=O)CN(C[C@H](CCC(=O)O)NC(=O)CN(C[C@@H](NC(=O)CN(C[C@H](CCCCN)NC(=O)CN(C[C@H](Cc1c[nH]c2ccccc12)NC(=O)CN(C[C@H](CCC(=O)O)NC(=O)CN(C[C@H](Cc1c[nH]c2ccccc12)NC(=O)CN(C[C@H](CCSC)NC(C)=O)S(=O)(=O)CC(C)C)S(=O)(=O)CC(C)C)S(=O)(=O)c1ccc(C(=O)O)cc1)S(=O)(=O)CC(C)C)S(=O)(=O)CCN)[C@H](C)CC)S(=O)(=O)CC(C)C)S(=O)(=O)c1ccc(C(=O)O)cc1)S(=O)(=O)CC(C)C)S(=O)(=O)CCN`, for which the IC50 in series [1] was more than 40 µM. Also, in series [2], the CC50 at 72 h was more than 40 µM.

Regarding `CC[C@@H](C)[C@@H](CN(CC(=O)N[C@@H](CCC(=O)O)CN(CC(=O)N[C@H](CO)CN(CC(=O)N[C@@H](CCCCN)CN(CC(=O)N[C@H](CN(CC(=O)N[C@@H](CCC(=O)O)CN(CC(=O)N[C@@H](CC(C)C)CN(CC(N)=O)S(=O)(=O)CC(C)C)S(=O)(=O)c1ccc(C(=O)O)cc1)S(=O)(=O)CC(C)C)[C@H](C)CC)S(=O)(=O)CCN)S(=O)(=O)CC(C)C)S(=O)(=O)c1ccc(C(=O)O)cc1)S(=O)(=O)CC(C)C)NC(=O)CN(C[C@@H](CCCCN)NC(=O)CN(C[C@H](Cc1c[nH]c2ccccc12)NC(=O)CN(C[C@H](CCC(=O)O)NC(=O)CN(C[C@H](Cc1c[nH]c2ccccc12)NC(=O)CN(C[C@H](CCSC)NC(C)=O)S(=O)(=O)CC(C)C)S(=O)(=O)CC(C)C)S(=O)(=O)c1ccc(C(=O)O)cc1)S(=O)(=O)CC(C)C)S(=O)(=O)CCN`, in series [1], the IC50 was more than 100 µM. In addition, the half-maximal cytotoxic concentration (CC50) at 72 h in series [2] was more than 100 µM.

As for `CC[C@@H](C)[C@@H](CN(CC(=O)N[C@@H](CCC(=O)O)CN(CC(=O)N[C@@H](CC(C)C)CN(CC(N)=O)S(=O)(=O)CC(C)C)S(=O)(=O)c1ccc(C(=O)O)cc1)S(=O)(=O)CC(C)C)NC(=O)CN(C[C@H](CCCCN)NC(=O)CN(C[C@H](Cc1ccc(O)cc1)NC(=O)CN(C[C@H](CCC(=O)O)NC(=O)CN(C[C@@H](NC(=O)CN(C[C@H](CCCCN)NC(=O)CN(C[C@H](Cc1c[nH]c2ccccc12)NC(=O)CN(C[C@H](CCC(=O)O)NC(=O)CN(C[C@H](Cc1c[nH]c2ccccc12)NC(C)=O)S(=O)(=O)CC(C)C)S(=O)(=O)c1ccc(C(=O)O)cc1)S(=O)(=O)CC(C)C)S(=O)(=O)CCN)[C@H](C)CC)S(=O)(=O)CC(C)C)S(=O)(=O)c1ccc(C(=O)O)cc1)S(=O)(=O)CC(C)C)S(=O)(=O)CCN`, the concentration for half-maximal inhibition (IC50) in series [1] is more than 100 µM. Besides, the CC50 at 72 h in series [2] was more than 100 µM.

`CC[C@@H](C)[C@@H](CN(CC(=O)N[C@@H](CCC(=O)O)CN(CC(=O)N[C@@H](CC(C)C)CN(CC(=O)N[C@@H](CCCCN)CN(CC(=O)N[C@@H](CC(C)C)CN(CC(N)=O)S(=O)(=O)CC(C)C)S(=O)(=O)CCN)S(=O)(=O)CC(C)C)S(=O)(=O)c1ccc(C(=O)O)cc1)S(=O)(=O)CC(C)C)NC(=O)CN(C[C@H](CCCCN)NC(=O)CN(C[C@H](Cc1ccc(O)cc1)NC(=O)CN(C[C@H](CCC(=O)O)NC(=O)CN(C[C@@H](NC(=O)CN(C[C@H](CCCCN)NC(=O)CN(C[C@H](Cc1c[nH]c2ccccc12)NC(=O)CN(C[C@H](CCC(=O)O)NC(=O)CN(C[C@H](Cc1c[nH]c2ccccc12)NC(=O)CN(C[C@H](CCSC)NC(C)=O)S(=O)(=O)c1ccc(OC)cc1)S(=O)(=O)CC(C)C)S(=O)(=O)c1ccc(C(=O)O)cc1)S(=O)(=O)CC(C)C)S(=O)(=O)CCN)[C@H](C)CC)S(=O)(=O)CC(C)C)S(=O)(=O)c1ccc(C(=O)O)cc1)S(=O)(=O)CC(C)C)S(=O)(=O)CCN`: the IC50 in series [1] stood at 15.7 µM. Further, in series [3], the selectivity ratio was more than 6.3. The CC50 at 72 h in series [2] is more than 100 µM.

As for `CC[C@@H](C)[C@@H](CN(CC(=O)N[C@@H](CCC(=O)O)CN(CC(=O)N[C@@H](CC(C)C)CN(CC(N)=O)S(=O)(=O)CC(C)C)S(=O)(=O)c1ccc(C(=O)O)cc1)S(=O)(=O)CC(C)C)NC(=O)CN(C[C@H](CCCCN)NC(=O)CN(C[C@H](Cc1ccc(O)cc1)NC(=O)CN(C[C@H](CCC(=O)O)NC(=O)CN(C[C@@H](NC(=O)CN(C[C@H](CCCCN)NC(=O)CN(C[C@H](Cc1c[nH]c2ccccc12)NC(=O)CN(C[C@H](CCC(=O)O)NC(=O)CN(C[C@H](Cc1c[nH]c2ccccc12)NC(=O)CN(C[C@H](CCSC)NC(C)=O)S(C)(=O)=O)S(=O)(=O)CC(C)C)S(=O)(=O)c1ccc(C(=O)O)cc1)S(=O)(=O)CC(C)C)S(=O)(=O)CCN)[C@H](C)CC)S(=O)(=O)CC(C)C)S(=O)(=O)c1ccc(C(=O)O)cc1)S(=O)(=O)CC(C)C)S(=O)(=O)CCN`, in series [1], the IC50 came to 38.9 µM. Further, in series [3], the selectivity ratio was more than 2.5. The CC50 at 72 h in series [2] was more than 100 µM.

As for `CC[C@@H](C)[C@@H](CN(CC(=O)N[C@@H](CCC(=O)O)CN(CC(=O)N[C@@H](Cc1ccc(O)cc1)CN(CC(=O)N[C@@H](CCCCN)CN(CC(=O)N[C@H](CN(CC(=O)N[C@@H](CCC(=O)O)CN(CC(=O)N[C@@H](CC(C)C)CN(CC(N)=O)S(=O)(=O)CC(C)C)S(=O)(=O)c1ccc(C(=O)O)cc1)S(=O)(=O)CC(C)C)[C@H](C)CC)S(=O)(=O)CCN)S(=O)(=O)CC(C)C)S(=O)(=O)c1ccc(C(=O)O)cc1)S(=O)(=O)CC(C)C)NC(=O)CN(C[C@H](CCCCN)NC(=O)CN(C[C@@H](Cc1c[nH]c2ccccc12)NC(=O)CN(C[C@H](CCC(=O)O)NC(=O)CN(C[C@H](Cc1c[nH]c2ccccc12)NC(=O)CN(C[C@H](CCSC)NC(C)=O)S(=O)(=O)CC(C)C)S(=O)(=O)CC(C)C)S(C)(=O)=O)S(=O)(=O)CC(C)C)S(=O)(=O)CCN`, the IC50 in series [1] is more than 40 µM. Further, in series [2], the CC50 at 72 h was more than 40 µM.

Regarding `CC[C@@H](C)[C@@H](CN(CC(=O)N[C@@H](CCC(=O)O)CN(CC(=O)N[C@@H](CC(C)C)CN(CC(=O)N[C@@H](CCCCN)CN(CC(=O)N[C@@H](C)CN(CC(=O)N[C@@H](CCC(=O)O)CN(CC(=O)N[C@@H](CCCCN)CN(CC(=O)N[C@@H](CCCCN)CN(CC(=O)N[C@@H](CCC(=O)O)CN(CC(=O)N[C@@H](CCC(=O)O)CN(CC(=O)N[C@@H](CC(C)C)CN(CC(=O)N[C@@H](CCCCN)CN(CC(N)=O)S(=O)(=O)CCN)S(=O)(=O)CC(C)C)S(=O)(=O)c1ccc(C(=O)O)cc1)S(=O)(=O)c1ccc(C(=O)O)cc1)S(=O)(=O)CCN)S(=O)(=O)CCN)S(=O)(=O)c1ccc(C(=O)O)cc1)S(C)(=O)=O)S(=O)(=O)CCN)S(=O)(=O)CC(C)C)S(=O)(=O)c1ccc(C(=O)O)cc1)S(=O)(=O)CC(C)C)NC(C)=O`, in series [1], the IC50 is more than 40 µM. In addition, the half-maximal cytotoxic concentration (CC50) at 72 h in series [2] is more than 40 µM.

Regarding `CC[C@H](C)[C@H](NC(=O)[C@H](CC(C)C)NC(=O)[C@H](CCC(=O)O)NC(=O)[C@H](CCC(=O)O)NC(=O)[C@@H](NC(=O)[C@H](CCCCN)NC(=O)[C@H](CCCCN)NC(=O)[C@@H](NC(=O)[C@H](Cc1ccc(O)cc1)NC(=O)[C@H](CCC(=O)O)NC(=O)[C@H](CCC(=O)O)NC(=O)[C@@H](NC(=O)[C@H](CCCCN)NC(=O)[C@H](CCCCN)NC(=O)[C@H](CC(=O)O)NC(=O)[C@H](Cc1cc2ccccc2[nH]1)NC(=O)[C@H](CCC(=O)O)NC(=O)[C@H](CCC(=O)O)NC(=O)[C@H](Cc1cc2ccccc2[nH]1)NC(=O)[C@@H](NC(=O)[C@H](CCSC)NC(C)=O)[C@@H](C)O)[C@@H](C)CC)[C@H](C)O)[C@@H](C)CC)C(=O)N[C@@H](CCCCN)C(=O)N[C@@H](CCCCN)C(=O)N[C@@H](CO)C(N)=O`, in series [1], the concentration for half-maximal inhibition (IC50) amounted to 0.001 µM.

With `CC[C@@H](C)[C@@H](CN(CC(=O)N[C@@H](CCC(=O)O)CN(CC(=O)N[C@@H](CC(C)C)CN(CC(N)=O)S(=O)(=O)CC(C)C)S(C)(=O)=O)S(=O)(=O)CC(C)C)NC(=O)CN(C[C@H](CCCCN)NC(=O)CN(C[C@H](Cc1ccc(O)cc1)NC(=O)CN(C[C@H](CCC(=O)O)NC(=O)CN(C[C@@H](NC(=O)CN(C[C@H](CCCCN)NC(=O)CN(C[C@H](Cc1c[nH]c2ccccc12)NC(=O)CN(C[C@@H](CCC(=O)O)NC(=O)CN(C[C@H](Cc1c[nH]c2ccccc12)NC(=O)CN(C[C@H](CCSC)NC(C)=O)S(=O)(=O)CC(C)C)S(=O)(=O)CC(C)C)S(C)(=O)=O)S(=O)(=O)CC(C)C)S(=O)(=O)CCN)[C@H](C)CC)S(=O)(=O)CC(C)C)S(C)(=O)=O)S(=O)(=O)CC(C)C)S(=O)(=O)CCN`, the concentration for half-maximal inhibition (IC50) in series [1] is more than 100 µM. The CC50 at 72 h in series [2] is more than 100 µM.

For `CC[C@@H](C)[C@@H](CN(CC(=O)N[C@@H](CCC(=O)O)CN(CC(=O)N[C@@H](CC(C)C)CN(CC(N)=O)S(=O)(=O)CC(C)C)S(=O)(=O)c1ccc(C(=O)O)cc1)S(=O)(=O)CC(C)C)NC(=O)CN(C[C@H](CCCCN)NC(=O)CN(C[C@H](Cc1ccc(O)cc1)NC(=O)CN(C[C@H](CCC(=O)O)NC(=O)CN(C[C@@H](NC(=O)CN(C[C@H](CCCCN)NC(=O)CN(C[C@H](Cc1c[nH]c2ccccc12)NC(=O)CN(C[C@H](CCC(=O)O)NC(=O)CN(C[C@H](Cc1c[nH]c2ccccc12)NC(=O)CN(C[C@H](CCSC)NC(C)=O)S(=O)(=O)CC(C)C)S(=O)(=O)CC(C)C)S(=O)(=O)c1ccc(C(=O)O)cc1)S(=O)(=O)CC(C)C)S(=O)(=O)CCN)[C@H](C)CC)S(=O)(=O)CC(C)C)S(=O)(=O)c1ccc(C(=O)O)cc1)S(C)(=O)=O)S(=O)(=O)CCN`, the IC50 in series [1] was more than 100 µM. The CC50 at 72 h in series [2] was more than 100 µM.

Broadly, the IC50 is the concentration that inhibits the measured activity by half. As usually defined, the CC50 is the concentration giving 50% cytotoxicity.
